Common to all, as to experiment: NCI tumour cell line growth inhibition, 48 h
Assay [1] concerns DU-145.
Assay [2] has as its system RXF 393.
The subject of assay [3] is BT-549.
The test system of assay [4] is 786-0.
Assay [5] relates to PC-3.
For assay [6], the system named is MCF7.
For assay [7], the system named is MOLT-4.
Assay [8] relates to T47D.
The subject of assay [9] is RPMI-8226.
Assay [10] relates to MDA-MB-435.
The test system of assay [11] is NCI/ADR-RES.
Assay [12] concerns SF-268.
The test system of assay [13] is IGROV-1.
The subject of assay [14] is SN12C.
Assay [15] deals with SF-295.
The subject of assay [16] is HT-29.
Assay [17] relates to SNB-78.
The test system of assay [18] is M19-MEL.
Assay [19] relates to LXFL 529.
For assay [20], the system named is XF498.

Each structure is given as a SMILES string.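 Exposure lasted 48 hours, with cells grown in 96-well plates and compounds tested at five concentrations. GI50 = concentration required for 50% inhibition of growth.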 Active and inactive are the calls of the source. Cut-off read from the data, not from the text of the source: active = GI50 up to about 1.1 µM and inactive = higher. Bounds are passed on as bounds.

Take `O=[N+]([O-])c1ccc(S(=O)(=O)N=Ic2ccccc2)cc1`: the GI50 in [1], in [2], in assay [3], in assay [4], in [5] and in assay [6] was > 100 µM (inactive) each time. For the same molecule, the GI50 in assay [7], in [8], in assay [9], in [10], in assay [11] and in [12] was > 100 µM (inactive) in each case. The GI50 in [13], in assay [14], in assay [15] and in [16] was > 100 µM (inactive) in each case.

For the molecule `COC(=O)C1=C(O)C(C(=O)OC)[C@@]2(O)[C@@H](C(=O)OC)[C@H](C)C[C@@H]1[C@@H]2C(=O)OC` (some centres undefined), the GI50 in assay [1] was 20.2 µM (inactive); in [2], 15.4 µM (inactive); in assay [3], 32.9 µM (inactive); in assay [6], 34.8 µM (inactive); in assay [7], 28.3 µM (inactive); in assay [8], 46.8 µM (inactive). Also, the GI50 in [9] is 23.8 µM (inactive); in [10], 14.7 µM (inactive); in [14], 36.6 µM (inactive); in [16] it was 27.6 µM (inactive).

With `O=C1C(=O)N(C2CCCCC2)C(=S)N1C1CCCCC1`, the GI50 in assay [1], in assay [2], in [4], in assay [5], in assay [7] and in assay [8] was > 100 µM (inactive) in each case. For the same molecule, the GI50 in assay [9], in assay [10], in assay [11], in assay [12], in assay [13] and in [14] was > 100 µM (inactive) each time. The GI50 in assay [15] and in assay [16] was > 100 µM (inactive) in each case.

In the case of `NCc1ccccc1-c1c2nc(c(-c3ccccc3CN)c3ccc([nH]3)c(-c3ccccc3CN)c3nc(c(-c4ccccc4CN)c4ccc1[nH]4)C=C3)C=C2`, the GI50 in assay [2] is 13.1 µM (inactive); in assay [7], > 10 µM (inactive); in assay [9] it was 12.4 µM (inactive); in assay [17], 16.7 µM (inactive); in assay [12] it was 20.8 µM (inactive); in assay [18], 22.2 µM (inactive). Moreover, the GI50 in [13] is 23.7 µM (inactive); in assay [14], 18.7 µM (inactive); in [19], 22.1 µM (inactive); in assay [16], 28.2 µM (inactive).

Regarding `O=C(O)/C=N\N=c1[nH]c2ccccc2[nH]1`, the GI50 in [1] was > 100 µM (inactive); in assay [3], > 100 µM (inactive); in assay [4], > 100 µM (inactive); in assay [5] it was > 100 µM (inactive); in assay [6] it was 49.2 µM (inactive); in [7], > 100 µM (inactive). In addition, the GI50 in assay [8], in assay [9], in assay [10], in assay [11], in assay [12] and in assay [13] was > 100 µM (inactive) each time. For the same molecule, the GI50 in [14], in assay [15] and in assay [16] was > 100 µM (inactive) each time.

On to `CSc1ccccc1P(c1ccccc1SC)c1ccccc1SC`, for which the GI50 in assay [1] is > 100 µM (inactive); in [3] it was > 100 µM (inactive); in assay [4], > 100 µM (inactive); in [6] it was > 100 µM (inactive); in assay [7] it was > 100 µM (inactive); in [8] it was 2.62 µM (inactive). Further, the GI50 in assay [9], in [10], in assay [11], in assay [12], in [14] and in assay [15] was > 100 µM (inactive) in each case.

Turning to `O=C1CC2CC3OC3[C@H]3c4cc5c(cc4C(=O)N1C23)OCO5` (some centres undefined), the GI50 in assay [7], in assay [9], in assay [20], in assay [12], in [18] and in assay [13] was > 100 µM (inactive) each time. For the same molecule, the GI50 in assay [14], in [15], in assay [19] and in [16] was > 100 µM (inactive) in each case.

Regarding `O=[N+]([O-])c1ccc(S[C@@H]2[C@H]3c4c(-c5ccccc5)[nH]c(-c5ccccc5)c4[C@@H]2C[C@H]3Cl)cc1`, the GI50 in assay [1] is 3.31 µM (inactive); in assay [2], 0.938 µM (active); in assay [3] it was 3.66 µM (inactive); in assay [4] it was 2.62 µM (inactive); in assay [5], 3.8 µM (inactive); in assay [6], 2.31 µM (inactive). In addition, the GI50 in assay [8] is 1.93 µM (inactive); in assay [10], 3.58 µM (inactive); in [11] it was 2.87 µM (inactive); in assay [12], 2.68 µM (inactive); in assay [13], 2.79 µM (inactive); in assay [14] it was 2.94 µM (inactive). The GI50 was 3.71 µM (inactive) in [15] and 3.37 µM (inactive) in assay [16].

Regarding `COc1c(OC)c(OC)c2c(c1OC)c(=O)c1ccccc1n2C` [MELICOPICINE], the GI50 in assay [1] is > 100 µM (inactive); in assay [3], > 100 µM (inactive); in [4], > 100 µM (inactive); in [5] it was > 100 µM (inactive); in assay [6], > 100 µM (inactive); in [7], 51.1 µM (inactive). Also, the GI50 in assay [8] is 54.3 µM (inactive); in [9] it was > 100 µM (inactive); in assay [10] it was > 100 µM (inactive); in [11] it was 73.5 µM (inactive); in assay [12] it was > 100 µM (inactive); in assay [13], > 100 µM (inactive). Further, the GI50 in [14], in assay [15] and in assay [16] was > 100 µM (inactive) throughout.

Consider `Nc1nnc(O)c2c1c(I)cn2C1OC(CO)C(O)C1O` (centres undefined), for which the GI50 is 1.06 µM (active) in [2]; 0.0474 µM (active) in [7]; 0.35 µM (active) in assay [9]; 2.96 µM (inactive) in assay [20]; 1.17 µM (inactive) in [17]; 2.21 µM (inactive) in assay [12]. Moreover, the GI50 in assay [13] was 0.643 µM (active); in [14], 0.284 µM (active); in [15], 1.43 µM (inactive); in [19], 0.646 µM (active); in assay [16] it was 0.122 µM (active).

As for `CCCCOc1ccc2c(c1)CC[C@@H]1[C@@H]2CC[C@]2(C)C(=O)N(CCCC)C(=O)C[C@@H]12`, the GI50 was > 100 µM (inactive) in assay [1]; 87.9 µM (inactive) in [3]; 25.1 µM (inactive) in assay [5]; > 100 µM (inactive) in assay [6]; 30.4 µM (inactive) in assay [7]; > 100 µM (inactive) in assay [8]. Also, the GI50 was 65.9 µM (inactive) in [9]; > 100 µM (inactive) in [10]; > 100 µM (inactive) in [11]; > 100 µM (inactive) in assay [13]; > 100 µM (inactive) in assay [14]; > 100 µM (inactive) in [15]. The GI50 in assay [16] is > 100 µM (inactive).

Take `O=C(/C=C1\Nc2ncccc2N=C1CC(=O)c1ccccc1)c1ccccc1`: the GI50 is 12.9 µM (inactive) in assay [1]; 2.71 µM (inactive) in assay [3]; 10.1 µM (inactive) in [5]; 3.61 µM (inactive) in assay [6]; 3.4 µM (inactive) in assay [7]; 9.31 µM (inactive) in assay [8]. Also, the GI50 in [9] was 5.37 µM (inactive); in [10], 5.93 µM (inactive); in assay [11], 4.56 µM (inactive); in assay [12] it was 2.53 µM (inactive); in assay [13], 2.72 µM (inactive); in assay [14], 2.24 µM (inactive). The values for the GI50 in assay [15] and in assay [16] were 4.44 µM (inactive) and 6.89 µM (inactive), respectively.

For the molecule `Cc1cc2c3c(c1)CCCN3CCC2`, the GI50 in [1], in assay [2], in assay [4], in assay [5], in assay [6] and in assay [7] was > 10 µM (inactive) in each case. The GI50 in [8], in [9], in [10], in assay [11], in assay [12] and in [13] was > 10 µM (inactive) in each case. In addition, the GI50 in [14], in assay [15] and in assay [16] was > 10 µM (inactive) in each case.

With `CC(C)(C)N(Cc1ccoc1)C(=O)/C=C\[S+]([O-])c1ccccc1` (centres undefined), the GI50 is 12.5 µM (inactive) in assay [1]; 10.7 µM (inactive) in assay [3]; 19.8 µM (inactive) in assay [4]; 10.6 µM (inactive) in assay [5]; 15.6 µM (inactive) in assay [6]; 22.5 µM (inactive) in [7]. In addition, the GI50 in assay [8] is 14.6 µM (inactive); in assay [9], 14.4 µM (inactive); in assay [10], 6.79 µM (inactive); in assay [11] it was 21.2 µM (inactive); in assay [12] it was 30.1 µM (inactive); in [13] it was 15 µM (inactive). The GI50 in [14] was 20.9 µM (inactive); in assay [15] it was 29.9 µM (inactive); in assay [16], 22.9 µM (inactive).

Source of the values: ChEMBL document CHEMBL1201862, “PubChem BioAssay data set” (2004).
